Results on 18 compounds are retold here after patent US20240059710A1, “KRAS G12D Inhibitors” (Jacobio Pharmaceuticals Co., Ltd., priority 2020, published 2024).

As a reminder, the pIC50 is the IC50 on a negative log10 scale, so that one unit is a factor of ten.

The test system of one assay is AGS. As to the kind of experiment: Cell growth inhibition assay (AGS). It counts as cell-based. Conditions: 6 days incubation, CellTiter-Glo. How it is done: (§1) 4. Cell Growth Inhibition Assay
AGS cultured in F12K medium (Gibco) containing 10% fetal bovine serum (Gibco). Cells in culture medium were plated in 96-well plates at a concentration of 500 cells/well ([…]) and allowed to attach overnight.
(§2) The next day, compounds were diluted in culture medium and added to the plates. After 6 days incubation in a 37° C./5% CO2 cell incubator, the cell viability was detected by CellTiter-Glo® Luminescent Cell Viability Assay kit (Promega). Luminescent signals were read on Tecan Spark multimode microplate reader and analyzed using a 4-parameter logistic model to calculate IC50 values.

For assay [1], the target named is T1, GppNp-loaded HIS-KRAS (G12D, aa 1-169) / cRAF RBD (Homo sapiens, UniProt P01116, G12D).
T1 construct: GppNp-loaded HIS-KRAS (G12D, aa 1-169)
T1 sequence (P01116 1-169 isoform P01116-2 G12D): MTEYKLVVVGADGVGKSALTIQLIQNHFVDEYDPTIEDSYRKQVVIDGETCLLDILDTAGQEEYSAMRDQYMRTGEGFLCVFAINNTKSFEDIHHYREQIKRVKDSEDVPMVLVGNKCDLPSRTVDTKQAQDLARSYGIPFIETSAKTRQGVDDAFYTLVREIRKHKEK
The experiment in a line: GTP-KRAS and cRAF interaction assay. Type of assay: binding. The following applies: HTRF, 2 hours at 25° C. How it is done:
2. GTP-KRAS and cRAF Interaction Assay
GppNp-loaded HIS-KRAS (G12D, aa 1-169) was pre-incubated with a compound in the presence of 200 µM GTP in a 384-well plate (Greiner) for 15 min, then cRAF RBD (GST tag, aa 50-132, CreativeBioMart), MAb Anti GST-d2 (Cisbio) and MAb Anti 6HIS-Tb cryptate Gold (Cisbio) were added to the assay wells (Final concentration: 2.0 nM GppNp-loaded HIS-KRAS (G12D), 100 μM GTP, 35 nM cRAF RBD, 1 μg/mL MAb Anti GST-d2, 52.5 ng/mL MAb Anti 6HIS-Tb cryptate Gold) and incubated for 2 hours at 25° C. Wells containing same percent of DMSO served as vehicle control, and wells without KRAS served as low control. HTRF signals were read on Tecan Spark multimode microplate reader and HTRF ratios were calculated under manufacturer's instructions. The percent of activation of compounds treated wells were normalized between vehicle control and low control (% Activation=(HTRF ratioCompound treated−HTRF ratioLow control)/(HTRF ratioVehicle control−HTRF ratioLow control)*100). Then the data were analyzed either by fitting a 4-parameter logistic model or by Excel to calculate IC50 values.
(Time-resolved FRET reads energy transfer from a long-lived donor to a nearby acceptor.)

The subject of assay [2] is AGS cells expressing KRAS G12D. As to the kind of experiment: Phospho-ERK1/2(THR202/TYR204) HTRF assay. It counts as cell-based. The following applies: 2 hours incubation, read-out: AGS p-ERK IC50. How it is done: AGS cells expressing KRAS G12D were cultured in F12K medium (Gibco) containing 10% fetal bovine serum (Gibco). The AGS cells in culture medium were seeded in 96-well plates at a concentration of 40,000 cells/well and then put in a 37° C./5% CO2 cell incubator to incubate overnight. The next day, culture medium was removed and the compound diluted in assay medium (F12K, 0.1% FBS) was added in each well. After 2 hours incubation in a 37° C./5% CO2 cell incubator, the assay medium in 96-well plates was removed, then 50 μL of 1× blocking reagent-supplemented lysis buffer (Cisbio) was added and the plates were incubated at 25° C. for 45 min with shaking. 10 μL of cell lysates from the 96-well plates were transferred to a 384-well plate (Greiner) containing 2.5 μL/well HTRF® pre-mixed antibodies (Cisbio 64AERPEH). Incubate 4 hours at 25° C. and then read HTRF signals on Tecan Spark multimode microplate reader. The data were analyzed using a 4-parameter logistic model to calculate IC50 values.

In assay [3] the target is T2, GDP-loaded HIS-KRAS (G12D, aa 1-169) (Homo sapiens, UniProt P01116, G12D).
T2 construct: GDP-loaded HIS-KRAS (G12D, aa 1-169)
T2 sequence (P01116 1-169 isoform P01116-2 G12D): as above
The experiment in a line: SOS1 catalyzed nucleotide exchange assay. Type of assay: biochemical. The following applies: SOS1 ExD, TR-FRET, 4 hours at 25° C. How it is done: 1. SOS1 Catalyzed Nucleotide Exchange Assay
GDP-loaded HIS-KRAS (G12D, aa 1-169) was pre-incubated with a compound in the presence of 10 nM GDP in a 384-well plate (Greiner) for 15 min, then purified SOS1 ExD (Flag tag, aa 564-1049), BODIPY™ FL GTP (Invitrogen) and MAb (monoclonal antibody) Anti 6HIS-Tb cryptate Gold (Cisbio) were added to the assay wells (Final concentration: 1.5 nM GDP-loaded HIS-KRAS (G12D), 5 nM GDP, 0.5 μM SOS1 ExD, 80 nM BODIPY™ FL GTP, 52.5 ng/mL MAb Anti 6HIS-Tb cryptate Gold) and incubated for 4 hours at 25° C. Wells containing same percent of DMSO served as vehicle control, and wells without KRAS served as low control. TR-FRET signals were read on Tecan Spark multimode microplate reader. The parameters were F486: Excitation 340 nm, Emission 486 nm, Lag time 100 μs, Integration time 200 μs; F515: Excitation 340 nm, Emission 515 nm, Lag time 100 μs, Integration time 200 μs. TR-FRET ratios for each individual wells were calculated by equation: TR-FRET ratio=(Signal F515/Signal F486)*10000. The percent of activation of compounds treated wells were normalized between vehicle control and low control (% Activation=(TR-FRET ratioCompound treated−TR-FRET ratioLow control)/(TR-FRET ratioVehicle control−TR-FRET ratioLow control)*100%). Then the data were analyzed either by fitting a 4-parameter logistic model or by Excel to calculate IC50 values.

The next assay concerns AsPC-1. As to the kind of experiment: Cell growth inhibition assay (AsPC-1). Type of assay: cell-based. Conditions: AsPC-1, 6 days incubation, CellTiter-Glo. How it is done: as §1
AsPC-1 cultured in RPMI-1640 medium (Gibco) containing 10% fetal bovine serum (Gibco). Cells in culture medium were plated in 96-well plates at a concentration of 1000 cells/well ([…]) and allowed to attach overnight.
as §2

pIC50: −log10 of the molar value. Read-outs that look alike come from different tables or passages of the source.

As to `CCc1cccc2cc(O)cc(-c3ccc4c(N5CC6CCC(C5)N6)nc(OCC5(CN6CCOCC6)CC5)nc4c3F)c12` [Compound 47], the pIC50 is 7.17 in the assay with AGS (Homo sapiens, 144 h); 6.58 in assay [1]; 7.53 in assay [2] (Homo sapiens); 8.14 in assay [3]; 7.12 in the assay with AsPC-1 (Homo sapiens, ASPC1, 144 h).
Taken in the same sequence, the figures for `C#Cc1cccc2cc(O)cc(-c3cc4nc(OCC5(CN6CCOCC6)CC5)nc(N5CC6CCC(C5)N6)c4cc3C(F)(F)F)c12` [Compound 119] were 7.09, 6.70, 6.95, 7.37 and 6.44.
Turning to `C#Cc1c(Cl)ccc2cc(O)cc(-c3ccc4c(N5CC6CCC(C5)N6)nc(OCC5(CN6CCOCC6)CC5)nc4c3F)c12` [Compound 127], the pIC50 was 8.74 in the assay with AGS (Homo sapiens, 144 h); 7.80 in assay [1]; 8.58 in assay [2] (Homo sapiens); 8.93 in assay [3]; 7.62 with AsPC-1 (Homo sapiens, ASPC1, 144 h).
Turning to `C#Cc1cccc2cc(O)cc(-c3ccc4c(N5CC6CCC(C5)N6)nc(OC[C@@]56CCCN5C[C@H](F)C6)nc4c3)c12` [Compound 96], the pIC50 in the assay on AGS (Homo sapiens, 144 h) is 6.69; in assay [1], 6.84; in assay [2] (Homo sapiens), 7.47; in assay [3], 7.53; with AsPC-1 (Homo sapiens, ASPC1, 144 h), 6.40.
Take `C#Cc1cccc2cc(O)cc(-c3c(Cl)cc4c(N5CC6CCC(C5)N6)nc(OCC5(CN6CCOCC6)CC5)nc4c3F)c12` (single isomer, unassigned) [Compound 35B]: the pIC50 was 7.87 with AGS; 6.95 in assay [1]; 8.21 in assay [2]; 8.23 in assay [3]; 7.40 in the assay with AsPC-1.
As to `C#Cc1cccc2cc(O)cc(-c3cc4nc(OC[C@@]56CCCN5C[C@H](F)C6)nc(N5CC6CCC(C5)N6)c4cc3Cl)c12` [Compound 97], the pIC50 with AGS (Homo sapiens, 144 h) is 7.34; in assay [1], 7.35; in assay [2] (Homo sapiens), 8.28; in assay [3], 8.12; in the assay with AsPC-1 (Homo sapiens, ASPC1, 144 h), 6.90.
Taken in the same sequence, the figures for `C#Cc1cccc2cc(O)cc(-c3c(F)cc4c(N5CC6CCC(C5)N6)nc(OCC5(CN6CCOCC6)CC5)nc4c3C)c12` [Compound 101] were 7.40, 6.56, 6.90, 8.80 and 6.95.
Taken in the same sequence, the figures for `C#Cc1cccc2cc(O)cc(-c3cc4nc(OCC5(CN6CCOCC6)CC5)nc(N5CC6CCC(C5)N6)c4cc3OC)c12` [Compound 120] were 7.55, 6.51, 7.70, 7.43 and 6.74.
In the case of `C#Cc1cccc2cc(O)cc(-c3c(CC)cc4c(N5CC6CCC(C5)N6)nc(OCC5(CN6CCOCC6)CC5)nc4c3F)c12` [Compound 49], the pIC50 in the assay on AGS (Homo sapiens, 144 h) was 7.97; in assay [1], 7.58; in assay [2] (Homo sapiens), 7.77; in assay [3], 8.45; in the assay on AsPC-1 (Homo sapiens, ASPC1, 144 h), 7.06.
Taken in the same sequence, the figures for `C#Cc1cccc2cc(O)cc(-c3cc4nc(OCC5(CN6CCOCC6)CC5)nc(N5CC6CCC(C5)N6)c4cc3F)c12` [Compound 108] were 7.66, 6.53, 7.72, 7.55 and 7.20.
Taken in the same sequence, the figures for `C#Cc1cccc2cc(O)cc(-c3cc4nc(OC[C@@]56CCCN5C[C@H](F)C6)nc(N5CC6CCC(C5)N6)c4cc3C)c12` [Compound 75] were 8.25, 7.07, 7.84, 8.03 and 7.21.
Take `C#Cc1cccc2cc(O)cc(-c3c(CCC#N)cc4c(N5CC6CCC(C5)N6)nc(OCC5(CN6CCOCC6)CC5)nc4c3F)c12` [Compound 44]: the negative logarithm of the IC50 (pIC50) in the assay with AGS (Homo sapiens, 144 h) is 7.88; in assay [1] it was 7.74; in assay [2] (Homo sapiens), 8.42; in assay [3], 8.67; in the assay with AsPC-1 (Homo sapiens, ASPC1, 144 h), 6.73.
Taken in the same sequence, the figures for `C#Cc1c(F)ccc2cc(O)cc(-c3c(C4CC4)cc4c(N5CC6CCC(C5)N6)nc(OC[C@@]56CCCN5C[C@H](F)C6)nc4c3F)c12` [Compound 71] were 6.69, 7.14, 8.03, 7.22 and 6.14.
Turning to `C#Cc1cccc2cc(O)cc(-c3cc4nc(OCC5(CN6CCOCC6)CC5)nc(N5CC6CCC(C5)N6)c4cc3CC)c12` [Compound 109], the pIC50 with AGS (Homo sapiens, 144 h) is 7.55; in assay [1] it was 6.85; in assay [2] (Homo sapiens), 7.28; in assay [3], 7.31; in the assay on AsPC-1 (Homo sapiens, ASPC1, 144 h), 7.06.
For `C#Cc1cccc2cc(O)cc(-c3c(C)cc4c(N5CC6CCC(C5)N6)nc(OCC5(CN6CCOCC6)CC5)nc4c3F)c12` [Compound 40], in that order: 7.81, 7.13, 8.43, 7.56 and 7.26.
For `C#Cc1cccc2cc(O)cc(-c3ccc4c(N5CC6CCC(C5)N6)nc(OCC5(CN6CCCC6)CC5)nc4c3F)c12` [Compound 116], in that order: 7.68, 6.96, 7.97, 7.90 and 6.72.
As for `Oc1cc(-c2c(Cl)cc3c(N4CC5CCC(C4)N5)nc(OCC45CCCN4C[C@H](F)C5)nc3c2F)c2c(Cl)cccc2c1` (stereo partly drawn) [Compound 90], the pIC50 in the assay on AGS (Homo sapiens, 144 h) is 7.84; in assay [1], 7.07; in assay [2] (Homo sapiens) it was 7.91; in assay [3], 8.27; with AsPC-1 (Homo sapiens, ASPC1, 144 h), 7.00.
Consider `C#Cc1c(Cl)ccc2cc(O)cc(-c3c(F)cc4c(N5CC6CCC(C5)N6)nc(OCC5(CN6CCOCC6)CC5)nc4c3F)c12` [Compound 126], for which the pIC50 with AGS (Homo sapiens, 144 h) was 9.31; in assay [1] it was 7.61; in assay [2] (Homo sapiens), 7.68; in assay [3] it was 8.68; in the assay on AsPC-1 (Homo sapiens, ASPC1, 144 h), 7.84.
